Assay results from patent US9474775B2, “Compound, extract isolated from antrodia camphorate, and method using the same” (priority 2013, dated 2016).
≈ marks a conversion by molar mass, not a printed value.

Tests used:
Assay type in all cases: cell-based
[1] = test system: PC3 cell line (prostate cancer); assay: MTT cell viability assay, PC3 cell line (prostate cancer); conditions: Homo sapiens, PC-3, 48 hours, read-out: half maximal inhibitory concentration (IC50), PC3
Method: (§1) Cell proliferation of A549 cell line (lung cancer), CT26 cell line (colon cancer), DU145 cell line (prostate cancer), HepG2 cell line (liver cancer), PC3 cell line (prostate cancer), MDA-MB-231 cell line (breast cancer) and MCF-7 cell line (breast cancer) was assessed by MTT cell viability assay.
(§2) Above cell lines were cultured in determined medium for 24 hours. Proliferative cells were washed with PBS solution, treated with trpsin-EDTA (1×), centrifuged at 1,200 rpm for 5 min, precipitated the cells and discarded supernatant. The cells were resuspended with 10 ml of fresh medium, and then loaded to 96-well plate. While the assay initiated, 0.01˜200 μg/ml of Antrodia camphorata extract was added in each well, and the plate was incubated for 48 hours, at 37° C., 5% CO2. Each wall was added with 2.5 mg/ml MTT reagent in the dark. After 4 hours of reaction, 100 μl lysis buffer were added to each wall to terminate the reaction. […] The experiment data was represented by means±SD. All data was statistically analyzed by paired-t test, and a P-value less than 0.05 was considered significant.

[2] = test system: DU145 cell line (prostate cancer); assay: MTT cell viability assay, DU145 cell line (prostate cancer); conditions: Homo sapiens; DU-145, MTT, 48 hours; read-out: half maximal inhibitory concentration (IC50), DU-145
Method: as §1, §2

[3] = test system: CT26 cell line (colon cancer); assay: MTT cell viability assay, CT26 cell line (colon cancer); conditions: Mus musculus, 48 hours, read-out: half maximal inhibitory concentration (IC50), CT26
Method: as §1, §2

[4] = test system: HepG2 cell line (liver cancer); assay: MTT cell viability assay, HepG2 cell line (liver cancer); conditions: Homo sapiens, 48 hours, read-out: half maximal inhibitory concentration (IC50), HepG2
Method: as §1, §2

[5] = test system: A549 cell line (lung cancer); assay: MTT cell viability assay, A549 cell line (lung cancer); conditions: Homo sapiens, 48 hours, read-out: half maximal inhibitory concentration (IC50), A549
Method: as §1, §2

[6] = test system: MCF-7 cell line (breast cancer); assay: MTT cell viability assay, MCF-7 cell line (breast cancer); conditions: Homo sapiens, MCF7; MCF-7, MTT, 48 hours; read-out: half maximal inhibitory concentration (IC50), MCF-7
Method: as §1, §2

[7] = test system: MDA-MB-231 cell line (breast cancer); assay: MTT cell viability assay, MDA-MB-231 cell line (breast cancer); conditions: Homo sapiens; MDA-MB-231, MTT, 48 hours; read-out: half maximal inhibitory concentration (IC50), MDA-MB-231
Method: as §1, §2

[8] = Solvent (DMSO) cytotoxicity, cell death; conditions: DMSO content of diluted drug; cell line not stated
Method: The symbols used in tables respectively represent: 0-25% cell viability: +/−; 25˜50% cell viability: +; 50˜75% cell viability: ++, 75˜100% cell viability: +++, >100% cell viability: ++++. […] In this experiment, when the drug concentration was diluted to […], DMSO concentration was 0.5%.

IC50 [1] | IC50 [2] | IC50 [3] | IC50 [4] | IC50 [5] | IC50 [6] | IC50 [7] | SMILES | IC50 value of the solvent (50% cell death) [8]
0.009 ± 0.001 µg/mL (≈ 0.0221 µM) | 0.07 ± 0.001 µg/mL (≈ 0.172 µM) | 0.011 ± 0.001 µg/mL (≈ 0.0271 µM) | 0.004 ± 0.001 µg/mL (≈ 0.00984 µM) | 0.014 ± 0.002 µg/mL (≈ 0.0344 µM) | 0.1 ± 0.01 µg/mL (≈ 0.246 µM) | 1.01 ± 0.06 µg/mL (≈ 2.48 µM) | COC1=C(OC)[C@H](O)[C@H](C/C=C(\C)CC/C=C(\C)C/C=C/C(C)(C)O)[C@@H](C)C1=O [Antrocamol LT3, (4R,5R,6R)-4-hydroxy-5-[(2E,6E,9E)-11-hydroxy-3,7,11-trimethyldodeca-2,6,9-trienyl]-2,3-dimethoxy-6-methylcyclohex-2-enone] | –
– | – | – | – | – | – | – | C[S+](C)[O-] [DMSO] | 2.34%
